Experimental data taken from patent publication US8426437B2, “Pyrroloquinoline derivatives and their use as protein kinases inhibitors” (Pierre Fabre Medicament, priority 2005, dated 2013).
Counter-ions that a name gives are not always drawn.

Target: T1, RET (Homo sapiens, UniProt P07949)
T1 construct: purchased Upstate 14-570MG
Assay: Inhibition of RET kinase activity, recombinant RET method (Kinase-Glo)
Format: biochemical
Conditions: RET 2 μg/ml, poly-EY4 substrate, 20 μM ATP, two hours at 30° C.
Experimental: The inhibition of the kinase activity of the compounds of the invention is assessed by measuring their IC50 on RET.
where: • Y is the value of the luminescence • X is the logarithm of the concentration of the compound • Bottom is the minimum Y value • Top is the maximum Y value • LogIC50 is the value of X when Y is 50% from Top—Bottom.
The quantity of RET required is 2 μg/ml.
The following buffer is used for dilution of RET: 20 mM MOPS/NaOH pH7.0, 1 mM EDTA, 5% glycerol, 0.01% Brij35 (Sigma B4184), 0.1% 2-mercaptoethanol, 1 mg/ml BSA (Sigma A3059-10G).
The dilution of the compounds of the invention is distributed so as to obtain a scale of final concentrations between 10 nM and 30 μM.
After incubation of the reaction mixture for two hours at 30° C., the level of ATP that remains is assayed using the Kinase-Glo Luminescent Kinase Assay (Promega #V6712) according to the conditions recommended by the supplier. The luminescence induced is read in a plate reader (Envision-Perkin Elmer).

T1 sequence (P07949 29-1114): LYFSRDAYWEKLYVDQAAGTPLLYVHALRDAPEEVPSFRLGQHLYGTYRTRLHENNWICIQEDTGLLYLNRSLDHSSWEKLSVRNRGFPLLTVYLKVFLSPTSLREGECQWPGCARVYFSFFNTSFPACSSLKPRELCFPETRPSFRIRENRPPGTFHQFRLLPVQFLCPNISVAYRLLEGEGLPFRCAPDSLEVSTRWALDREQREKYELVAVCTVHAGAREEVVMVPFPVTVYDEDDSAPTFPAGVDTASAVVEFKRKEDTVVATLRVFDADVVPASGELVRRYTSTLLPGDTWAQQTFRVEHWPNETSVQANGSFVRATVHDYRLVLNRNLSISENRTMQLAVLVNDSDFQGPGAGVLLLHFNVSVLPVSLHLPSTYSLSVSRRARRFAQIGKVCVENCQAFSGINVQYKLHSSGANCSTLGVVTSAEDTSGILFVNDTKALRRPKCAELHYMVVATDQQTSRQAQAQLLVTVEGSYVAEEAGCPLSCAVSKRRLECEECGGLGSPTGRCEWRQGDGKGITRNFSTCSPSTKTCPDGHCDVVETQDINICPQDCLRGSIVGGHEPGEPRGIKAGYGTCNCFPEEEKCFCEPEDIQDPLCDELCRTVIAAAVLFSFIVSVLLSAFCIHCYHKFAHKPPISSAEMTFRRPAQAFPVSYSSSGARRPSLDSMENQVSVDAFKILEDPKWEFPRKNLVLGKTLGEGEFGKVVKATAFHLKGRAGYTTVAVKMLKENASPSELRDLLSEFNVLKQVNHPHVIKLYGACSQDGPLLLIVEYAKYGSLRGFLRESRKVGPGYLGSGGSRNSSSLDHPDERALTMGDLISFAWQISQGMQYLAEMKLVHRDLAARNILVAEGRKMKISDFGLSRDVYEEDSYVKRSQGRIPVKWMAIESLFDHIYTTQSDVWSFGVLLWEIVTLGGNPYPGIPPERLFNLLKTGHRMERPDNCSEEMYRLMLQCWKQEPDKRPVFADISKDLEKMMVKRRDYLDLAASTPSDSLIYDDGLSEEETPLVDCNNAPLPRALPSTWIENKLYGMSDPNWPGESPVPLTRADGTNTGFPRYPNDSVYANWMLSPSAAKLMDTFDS

Row | SMILES | IC50
1 | CCOC(=O)c1c[nH]c2c(=O)[nH]c3ccc(S(=O)(=O)Nc4cccc(Cl)c4)cc3c12 [Compound 10, 8-(3-Chlorophenylsulfamoyl)-4-oxo-4,5-dihydro-3H-pyrrolo[2,3-c]quinoline-1-ethyl carboxylate] | 100 to 1000 nM
2 | CCOC(=O)c1c[nH]c2c(=O)[nH]c3ccc(-c4ccc(OC)cc4)cc3c12 [Compound 246, 8-(4-Methoxy-phenyl)-4-oxo-4,5-dihydro-3H-pyrrolo[2,3-c]quinoline-1-ethyl carboxylate] | 1000 to 10000 nM
3 | CCCOC(=O)c1c[nH]c2c(=O)[nH]c3ccc(S(=O)(=O)N4CC[C@H](N(C)C)C4)cc3c12 [Compound 171] | 100 to 1000 nM
4 | CCCOC(=O)c1c[nH]c2c(=O)[nH]c3cc(F)c(S(=O)(=O)N(C)CCN(C)C)cc3c12 [Compound 184, 8-[(2-Dimethylamino-ethyl)-methyl-sulfamoyl]-7-fluoro-4-oxo-4,5-dihydro-3H-pyrrolo[2,3-c]quinoline-1-propyl carboxylate] | < 100 nM
5 | COC(=O)c1c[nH]c2c(=O)[nH]c3ccc(S(=O)(=O)NN4CCCCC4)cc3c12 [Compound 191, 4-Oxo-8-(piperidin-1-ylsulfamoyl)-4,5-dihydro-3H-pyrrolo[2,3-c]quinoline-1-methyl carboxylate] | 1000 to 10000 nM
6 | CCOC(=O)c1c[nH]c2c(=O)[nH]c3ccc(NS(=O)(=O)c4ccc(Cl)s4)cc3c12 [Compound 57, 8-(5-Chloro-thiophene-2-sulfonylamino)-4-oxo-4,5-dihydro-3H-pyrrolo[2,3-c]quinoline-1-ethyl carboxylate] | 100 to 1000 nM
7 | CN1CCC(NS(=O)(=O)c2ccc3[nH]c(=O)c4[nH]cc(C(=O)OC5CCCC5)c4c3c2)CC1 [Compound 119, 8-(q-Methyl-piperidin-4-ylsulfamoyl)-4-oxo-4,5-dihydro-3H-pyrrolo[2,3-c]quinoline-1-cyclopentyl carboxylate] | 100 to 1000 nM
8 | CC(C)OC(=O)c1c[nH]c2c(=O)[nH]c3ccccc3c12 [Compound 78, 4-Oxo-4,5-dihydro-3H-pyrrolo[2,3-c]quinoline-1-carboxylate isopropyl] | 1000 to 10000 nM
9 | CCOC(=O)c1c[nH]c2c(=O)[nH]c3ccc(C(=O)c4ccccc4)cc3c12 [Compound 102, 8-Benzoyl-4-oxo-4,5-dihydro-3H-pyrrolo[2,3-c]quinoline-1-ethyl carboxylate] | 1000 to 10000 nM
10 | CN(c1ccc(F)cc1)S(=O)(=O)c1ccc2[nH]c(=O)c3[nH]cc(C(=O)OCCN)c3c2c1 [Compound 105, 8-[(4-Fluorophenyl)-methyl-sulfamoyl]-4-oxo-4,5-dihydro-3H-pyrrolo[2,3-c]quinoline-1-2-aminoethyl trifluoroacetate carboxylate] | 10000 to 100000 nM
11 | CCCOC(=O)c1c[nH]c2c(=O)[nH]c3ccc(I)cc3c12 [Compound 210, 8-Iodo-4-oxo-4,5-dihydro-3H-pyrrolo[2,3-c]quinoline-1-propyl carboxylate] | 100 to 1000 nM
12 | CCOC(=O)c1c[nH]c2c(=O)[nH]c3ccc(-c4ccc5c(c4)OCCO5)cc3c12 [Compound 248, 8-(2,3-Dihydro-benzo[1,4]dioxin-6-yl)-4-oxo-4,5-dihydro-3H-pyrrolo[2,3-c]quinoline-1-ethyl carboxylate] | 100 to 1000 nM
13 | CCOC(=O)c1c[nH]c2c(=O)[nH]c3ccc(NS(=O)(=O)c4ccccc4Cl)cc3c12 [Compound 42, 8-(2-Chloro-benzenesulfonylamino)-4-oxo-4,5-dihydro-3H-pyrrolo[2,3-c]quinoline-1-ethyl carboxylate] | 10000 to 100000 nM
14 | CCOC(=O)c1c[nH]c2c(=O)[nH]c3ccc(-c4cccnc4)cc3c12 [Compound 258, 4-Oxo-8-pyridin-3-yl-4,5-dihydro-3H-pyrrolo[2,3-c]quinoline-1-ethyl carboxylate] | 1000 to 10000 nM
15 | CCCOC(=O)c1c[nH]c2c(=O)[nH]c3ccc(S(=O)(=O)N(C[C@H]4CCCN4C)C4CC4)cc3c12 [Compound 146, (R)-8-[Cyclopropyl-(1-methyl-pyrrolidin-2-ylmethyl)-sulfamoyl]-4-oxo-4,5-dihydro-3H-pyrrolo[2,3-c]quinoline-1-propyl carboxylate] | 100 to 1000 nM
16 | CCCOC(=O)c1c[nH]c2c(=O)[nH]c3ccc(S(=O)(=O)N(CCO)C(C)C)cc3c12 [Compound 173, 8-[(2-Hydroxy-ethyl)isopropyl-sulfamoyl]-4-oxo-4,5-dihydro-3H-pyrrolo[2,3-c]quinoline-1-propyl carboxylate] | < 100 nM
17 | CCCOC(=O)c1c[nH]c2c(=O)[nH]c3ccc(S(=O)(=O)N(C[C@H]4CCCN4C(=O)OC(C)(C)C)C4CC4)cc3c12 [Compound 147, (R)-8-[(1-tert-Butoxycarbony-pyrrolidin-2-ylmethyl)-cyclopropyl-sulfamoyl]-4-oxo-4,5-dihydro-3H-pyrrolo[2,3-c]quinoline-1-propyl carboxylate] | 1000 to 10000 nM

Row | SMILES | IC50
18 | CC(C)COC(=O)c1c[nH]c2c(=O)[nH]c3ccc(I)cc3c12 [Compound 212, 8-Iodo-4-oxo-4,5-dihydro-3H-pyrrolo[2,3-c]quinoline-1-isobutyl carboxylate] | 1000 to 10000 nM
19 | C#CCN(CCN(C)C(=O)OC(C)(C)C)S(=O)(=O)c1ccc2[nH]c(=O)c3[nH]cc(C(=O)OCCC)c3c2c1 [Compound 157, 8-{[2-(tert-Butoxycarbonyl-methyl-amino)-ethyl]-prop-2-ynyl-sulfamoyl}-4-oxo-4,5-dihydro-3H-pyrrolo[2,3-c]quinoline-1-propyl carboxylate] | < 100 nM
20 | CCOC(=O)c1c[nH]c2c(=O)[nH]c3ccc(-c4ccn(C)n4)cc3c12 [Compound 283, 8-(1-Methyl-1H-pyrazol-3-yl)-4-oxo-4,5-dihydro-3H-pyrrolo[2,3-c]quinoline-1-ethyl carboxylate] | 100 to 1000 nM
21 | CCOC(=O)c1c[nH]c2c(=O)[nH]c3ccc(C#CC(C)(C)O)cc3c12 [Compound 204, 8-(3-Hydroxy-3-methyl-but-1-ynyl)-4-oxo-4,5-dihydro-3H-pyrrolo[2,3-c]quinoline-1-ethyl carboxylate] | 100 to 1000 nM
22 | CCOC(=O)c1c[nH]c2c(=O)[nH]c3ccc(Sc4cccc(NC(C)=O)c4)cc3c12 [Compound 225, 8-(3-Acetylaminophenylsulfanyl)-4-oxo-4,5-dihydro-3H-pyrrolo[2,3-c]quinoline-1-ethyl carboxylate] | 100 to 1000 nM
23 | CCCN(C)C(=O)c1c[nH]c2c(=O)[nH]c3ccc(S(=O)(=O)N(C)C)cc3c12 [Compound 110, N-Methyl-N-propyl-8-dimethylsulfamoyl-4-oxo-4,5-dihydro-3H-pyrrolo[2,3-c]quinoline-1-carboxamide] | 10000 to 100000 nM
24 | CCOC(=O)c1c[nH]c2c(=O)[nH]c3c([N+](=O)[O-])cccc3c12 [Compound 67, 6-Nitro-4-oxo-4,5-dihydro-3H-pyrrolo[2,3-c]quinoline-1-ethyl carboxylate] | 10000 to 100000 nM
25 | CCOC(=O)c1c[nH]c2c(=O)[nH]c3ccc(S(=O)(=O)C4CCCCC4)cc3c12 [Compound 197, 8-Cyclohexanesulfonyl-4-oxo-4,5-dihydro-3H-pyrrolo[2,3-c]quinoline-1-ethyl carboxylate] | 100 to 1000 nM
26 | CCCOC(=O)c1c[nH]c2c(=O)[nH]c3ccc(S(=O)(=O)N(C)CCN(C)C(=O)OC(C)(C)C)cc3c12 [Compound 140, 8-{[2-(tert-Butoxycarbonyl-methyl-amino)-ethyl]-methyl-sulfamoyl}-4-oxo-4,5-dihydro-3H-pyrrolo[2,3-c]quinoline-1-propyl carboxylate] | 1000 to 10000 nM
27 | O=C(NCCc1c[nH]c2ccccc12)c1c[nH]c2c(=O)[nH]c3ccccc3c12 [Compound 84, N-[2-(1H-Indol-3-yl)-ethyl]-4-oxo-4,5-dihydro-3H-pyrrolo[2,3-c]quinoline-1-carboxamide] | 10000 to 100000 nM
28 | CCCOC(=O)c1c[nH]c2c(=O)[nH]c3ccc(S(=O)(=O)N(Cc4c[nH]cn4)C4CC4)cc3c12 [Compound 143, 8-[Cyclopropyl-(1H-imidazol-4-ylmethyl)-sulfamoyl]-4-oxo-4,5-dihydro-3H-pyrrolo[2,3-c]quinoline-1-propyl carboxylate hydrochloride] | 100 to 1000 nM
29 | CCOC(=O)c1c[nH]c2c(=O)[nH]c3ccc(NS(=O)(=O)c4ccc(C)cc4)cc3c12 [Compound 47, 4-Oxo-8-(4-toluenesulfonylamino)-4,5-dihydro-3H-pyrrolo[2,3-c]quinoline-1-ethyl carboxylate] | 100 to 1000 nM
30 | CCOC(=O)c1c[nH]c2c(=O)[nH]c3ccc(-c4ccnc(N5CCN(c6ccccn6)CC5)n4)cc3c12 [Compound 265, 4-Oxo-8-[2-(4-pyridin-2-yl-piperazin-1-yl)-pyrimidin-4-yl]-4,5-dihydro-3H-pyrrolo[2,3-c]quinoline-1-ethyl carboxylate] | 1000 to 10000 nM
31 | CCCOC(=O)c1c[nH]c2c(=O)[nH]c3ccc(S(=O)(=O)N(C)CC(=O)O)cc3c12 [Compound 182, 8-(Carboxymethyl-methyl-sulfamoyl)-4-oxo-4,5-dihydro-3H-pyrrolo[2,3-c]quinoline-1-propyl carboxylate] | 1000 to 10000 nM
32 | CN(c1ccc(F)cc1)S(=O)(=O)c1ccc2[nH]c(=O)c3[nH]cc(C(=O)OCCCN)c3c2c1 [Compound 107, Trifluoroacetate of 8-[(4-fluorophenyl)-methyl-sulfamoyl]-4-oxo-4,5-dihydro-3H-pyrrolo[2,3-c]quinoline-1-3-aminopropyl carboxylate] | 10000 to 100000 nM
33 | CCOC(=O)c1c[nH]c2c(=O)[nH]c3cc(Cl)c(-c4cccc(S(C)(=O)=O)c4)cc3c12 [Compound 257, 7-Chloro-8-(3-methanesulfonyl-phenyl)-4-oxo-4,5-dihydro-3H-pyrrolo[2,3-c]quinoline-1-ethyl carboxylate] | 100 to 1000 nM
